Read-outs that look alike come from different tables or passages of the source.
Legend:
SARS-CoV-2 M^pro protein = SARS-CoV-2 M^pro protein (Severe acute respiratory syndrome coronavirus 2, UniProt P0DTD1); test: biochemical; settings: for IC50: three separate experiments in duplicate, read-out: IC50, mean±SD; for inhibition at 10 µM: read-out: % of inhibition at 10 µM
SARS-CoV-2 = test: microbe, parasite or virus in culture; format: cell-based
[1] = Cytotoxicity MTT assay in uninfected A549-ACE2 cells; format: cell-based; settings: human
Experimental: To evaluate the cytotoxicity profile of the compounds MTT assays were performed in A549-ACE2 cells. Uninfected cells were incubated with a range of compound concentrations (from 100 to 1 µM) for forty-eight hours, time at which the MTT substrate [3-(4,5-dimethylthiazol-2-yl)-2,5-diphenyltetrazolium bromide] was added and the formation of formazan precipitates was evaluated two hours later, using a colorimetric readout. Vehicle-treated (DMSO) cells were used as reference (100 %).

[2] = Severe acute respiratory syndrome coronavirus 2, SARS-CoV-2, A549-ACE2 cells, MOI 0.005, 48 h, read-out: EC50
[3] = Severe acute respiratory syndrome coronavirus 2, SARS-CoV-2, A549-ACE2 cells, MOI 0.005, 48 h, read-out: EC90
[4] = isolated SARS-CoV-2 M^pro, compound at 10 µM
[5] = Severe acute respiratory syndrome coronavirus 2, A549-ACE2, 48 h

| SMILES | IC50 (SARS-CoV-2 M^pro protein; isolated SARS-CoV-2 M^pro) | EC50 (SARS-CoV-2; [2]) | EC90 (SARS-CoV-2; [3]) | CC50 at 48 h [1] | inhibition at 10 µM (SARS-CoV-2 M^pro protein; [4]) | inhibition at 10 µM (SARS-CoV-2 M^pro protein) | EC50 (SARS-CoV-2; [5]) | EC90 (SARS-CoV-2; [5]) |
| --- | --- | --- | --- | --- | --- | --- | --- | --- |
| CC(C)C[C@@]1(C(=O)N[C@H](C#N)C[C@@H]2CCNC2=O)[C@H](C)CN1C(=O)[C@@H](NC(=O)OCc1ccccc1)C(C)C [Example 1] | 1.99 ± 1 µM | 5 µM | 20 µM | > 100 µM | – | – | – | – |
| CC(C)C[C@]1(C(=O)N[C@H](C#N)C[C@@H]2CCNC2=O)[C@@H](C)CN1C(=O)[C@@H](NC(=O)OCc1ccccc1)C(C)C [Example 2] | – | – | – | – | 0% | – | – | – |
| CC(C)C[C@@]1(C(=O)N[C@H](C#N)C[C@@H]2CCNC2=O)[C@H](C)CN1C(=O)[C@@H](NC(=O)C(F)(F)F)C(C)C [Example 3] | 2.58 ± 0.48 µM | 10 µM | 32 µM | 100 µM | – | – | – | – |
| CC(C)C[C@]1(C(=O)N[C@H](C#N)C[C@@H]2CCNC2=O)[C@@H](C)CN1C(=O)[C@@H](NC(=O)C(F)(F)F)C(C)C [Example 4] | – | – | – | – | 0% | – | – | – |
| CC(C)[C@H](NC(=O)OCc1ccccc1)C(=O)N1C[C@@H](C)[C@@]1(Cc1ccccc1)C(=O)N[C@H](C#N)C[C@@H]1CCNC1=O [Example 5] | 0.13 ± 0.03 µM | 1 µM | 6 µM | > 100 µM | – | – | – | – |
| CC(C)[C@H](NC(=O)C(F)(F)F)C(=O)N1C[C@@H](C)[C@@]1(Cc1ccccc1)C(=O)N[C@H](C#N)C[C@@H]1CCNC1=O [Example 7] | 0.2 ± 0.03 µM | 2 µM | 12 µM | > 100 µM | – | – | – | – |
| CC(C)C(NC(=O)C1CC1)C(=O)N1CC(C)C1(Cc1ccccc1)C(=O)NC(C#N)CC1CCNC1=O [Example 8, Cyclopropylcarbonyl-L-Val-(αS,β'R)-Azf-NH[(1S)-1-cyano-2-[(3'S)-2'-oxopyrrolidin-3'-yl]ethane] | 0.39 ± 0.05 µM | 8 µM | 31 µM | > 100 µM | – | – | – | – |
| CC(C)[C@H](NC(=O)OCc1ccccc1)C(=O)N1C[C@@H](C)[C@@]1(Cc1ccc(O)cc1)C(=O)N[C@H](C#N)C[C@@H]1CCNC1=O [Example 9] | 6.43 ± 0.53 µM | – | – | – | – | – | – | – |
| CC(C)[C@H](NC(=O)OCc1ccccc1)C(=O)N1C[C@@H](C)[C@@]1(Cc1ccc(OC(C)(C)C)cc1)C(=O)N[C@H](C#N)C[C@@H]1CCNC1=O [Example 10] | – | – | – | – | – | 9% | – | – |
| CC(C)[C@H](NC(=O)OCc1ccccc1)C(=O)N1C[C@@H](C)[C@@]1(Cc1c[nH]c2ccccc12)C(=O)N[C@H](C#N)C[C@@H]1CCNC1=O [Example 11] | 4.74 ± 0.81 µM | 31 µM | 48 µM | > 100 µM | – | – | – | – |
| CC(C)C[C@@]1(C(=O)N[C@H](C#N)C[C@@H]2CCNC2=O)[C@H](C)CN1C(=O)[C@@H](NC(=O)OC(C)(C)C)C(C)(C)C [Example 12] | 4.7 ± 0.76 µM | 29 µM | > 50 µM | 100 µM | – | – | – | – |
| C[C@@H]1CN(C(=O)[C@@H](NC(=O)OCc2ccccc2)C(C)(C)C)[C@]1(Cc1ccccc1)C(=O)N[C@H](C#N)C[C@@H]1CCNC1=O [Example 13] | – | 4 µM | 15 µM | > 100 µM | – | – | – | – |
| C[C@@H]1CN(C(=O)[C@@H](NC(=O)C(F)(F)F)C(C)(C)C)[C@]1(Cc1ccccc1)C(=O)N[C@H](C#N)C[C@@H]1CCNC1=O [Example 15] | – | 2 µM | 13 µM | > 100 µM | – | – | – | – |
| COC(=O)N[C@H](C(=O)N1C[C@@H](C)[C@@]1(Cc1ccccc1)C(=O)N[C@H](C#N)C[C@@H]1CCNC1=O)C(C)(C)C [Example 16] | 0.94 ± 0.17 µM | 3 µM | 20 µM | > 100 µM | – | – | – | – |
| Cc1ccc(OCC(=O)N[C@H](C(=O)N2C[C@@H](C)[C@@]2(Cc2ccccc2)C(=O)N[C@H](C#N)C[C@@H]2CCNC2=O)C(C)(C)C)cc1 [Example 17] | 1.03 µM | 3 µM | 18 µM | 100 µM | – | – | – | – |
| C[C@@H]1CN(C(=O)[C@@H](NC(=O)OCC(F)F)C(C)(C)C)[C@]1(Cc1ccccc1)C(=O)N[C@H](C#N)C[C@@H]1CCNC1=O [Example 18] | – | 4 µM | 7 µM | > 100 µM | – | – | – | – |

| SMILES | IC50 (SARS-CoV-2 M^pro protein; isolated SARS-CoV-2 M^pro) | EC50 (SARS-CoV-2; [2]) | EC90 (SARS-CoV-2; [3]) | CC50 at 48 h [1] | inhibition at 10 µM (SARS-CoV-2 M^pro protein; [4]) | inhibition at 10 µM (SARS-CoV-2 M^pro protein) | EC50 (SARS-CoV-2; [5]) | EC90 (SARS-CoV-2; [5]) |
| --- | --- | --- | --- | --- | --- | --- | --- | --- |
| C[C@@H]1CN(C(=O)[C@H](CCCCNC(=O)OC(C)(C)C)NC(=O)OCc2ccccc2)[C@]1(Cc1ccccc1)C(=O)N[C@H](C#N)C[C@@H]1CCNC1=O [Example 20] | – | 7 µM | 18 µM | 100 µM | – | – | – | – |
| C[C@@H]1CN(C(=O)[C@H](CCCCN)NC(=O)OCc2ccccc2)[C@]1(Cc1ccccc1)C(=O)N[C@H](C#N)C[C@@H]1CCNC1=O [Example 21] | 3.66 µM | – | – | – | – | – | – | – |
| C[C@@H]1CN(C(=O)[C@@H](NC(=O)OCc2ccccc2)C(C)(C)C)[C@]1(CCCCNC(=O)OC(C)(C)C)C(=O)N[C@H](C#N)C[C@@H]1CCNC1=O [Example 22] | – | – | – | – | – | 16% | – | – |
| C[C@@H]1CN(C(=O)[C@@H](NC(=O)OCc2ccccc2)C(C)(C)C)[C@]1(CCCCN)C(=O)N[C@H](C#N)C[C@@H]1CCNC1=O [Example 23] | – | – | – | – | – | 0% | – | – |
| C[C@@H]1CN(C(=O)[C@@H](NC(=O)OCc2ccccc2)C(C)(C)C)[C@]1(Cc1ccccc1)C(=O)N[C@H](C#N)Cc1c[nH]cn1 [Example 24] | – | 18 µM | 40 µM | > 100 µM | – | 10% | – | – |
| CC(C)[C@@H](CC(=O)N1C[C@@H](C)[C@@]1(Cc1ccccc1)C(=O)N[C@H](C#N)C[C@@H]1CCNC1=O)NC(=O)OC(C)(C)C [Example 26] | – | – | – | – | – | 28% | – | – |
| CC(C)[C@H](NC(=O)OCc1ccccc1)C(=O)N1C[C@@H](C)[C@@]1(Cc1ccccc1)C(=O)N[C@H](C=O)C[C@@H]1CCNC1=O [Example 28, Z-L-Val-(αS,β'R)-Azf-L-Ala(3S-2-oxopyrrolidin-3-yl)-H] | 0.005 ± 0.002 µM | 2 µM | 12 µM | > 100 µM | – | – | – | – |
| COC(=O)N[C@H](C(=O)N1C[C@@H](C)[C@@]1(Cc1ccccc1)C(=O)N[C@H](C=O)C[C@@H]1CCNC1=O)C(C)(C)C [Example 30, Methyloxycarbonyl-L-Tbg-(αS,β'R)-Azf-L-Ala(3S-2-oxopyrrolidin-3-yl)-CHO] | 0.048 ± 0.004 µM | 15 µM | 25 µM | > 100 µM | – | – | – | – |
| C[C@@H]1CN(C(=O)[C@@H](NC(=O)OCC(F)F)C(C)(C)C)[C@]1(Cc1ccccc1)C(=O)N[C@H](C=O)C[C@@H]1CCNC1=O [Example 31, 2,2-Difluoroethyloxycarbonyl-L-Tbg-(αS,β'R)-Azf-L-Ala(3S-2-oxopyrrolidin-3-yl)-H] | 0.024 ± 0.002 µM | 3 µM | 11 µM | > 100 µM | – | – | – | – |
| C[C@@H]1CN(C(=O)[C@@H](NC(=O)OC(C)(C)C)C(C)(C)C)[C@]1(Cc1ccccc1)C(=O)N[C@H](/C=C/C(=O)OCc1ccccc1)C[C@@H]1CCNC1=O [Example 32] | – | – | – | – | – | 40% | – | – |
| CC(C)C[C@@]1(C(=O)N[C@H](C#N)C[C@@H]2CCNC2=O)[C@H](C)CN1C(=O)[C@@H](NC(=O)OCC(F)F)C(C)(C)C [Example 33] | 5.94 ± 0.69 µM | 16 µM | > 25 µM | > 100 µM | – | – | – | – |
| C[C@@H]1CN(C(=O)[C@@H](NC(=O)OC(C)(C)C)C(C)(C)C)[C@]1(CC1CCCCC1)C(=O)N[C@H](C#N)C[C@@H]1CCNC1=O [Example 35] | – | 3 µM | 20 µM | > 100 µM | – | – | – | – |
| C[C@@H]1CN(C(=O)[C@@H](NC(=O)OCC(F)F)C(C)(C)C)[C@]1(CC1CCCCC1)C(=O)N[C@H](C#N)C[C@@H]1CCNC1=O [Example 37] | – | 4 µM | 22 µM | > 100 µM | – | – | – | – |
| C[C@@H]1CN(C(=O)[C@@H](NC(=O)C(F)(F)F)C(C)(C)C)[C@]1(CC1CCCCC1)C(=O)N[C@H](C#N)C[C@@H]1CCNC1=O [Example 38] | 2.36 ± 0.75 µM | 25 µM | > 25 µM | > 100 µM | – | – | – | – |
| CC(C)[C@H](NC(=O)OCC(F)F)C(=O)N1C[C@@H](C)[C@@]1(Cc1ccccc1)C(=O)N[C@H](C#N)C[C@@H]1CCNC1=O [Example 39] | – | 0.4 µM | 2 µM | > 50 µM | – | – | – | – |
| CC(C)(C)[C@H](NC(=O)C(F)(F)F)C(=O)N1C[C@H]2[C@@H]([C@H]1C(=O)N[C@H](C#N)C[C@@H]1CCNC1=O)C2(C)C [PF-07321332, nirmatrelvir, reference compound] | – | – | – | 100 µM | – | – | < 0.2 µM | < 0.2 µM |
